Reference: PubChem BioAssay (NCI)
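48-hour exposure; five concentrations; linearly interpolated endpoints. Abbreviation: GI50, concentration required for 50% inhibition of growth. TGI denotes the concentration required for complete inhibition of growth.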

Tests used:
Test in all cases: NCI-60 cell line screen, 48 h; in the data active = GI50 below about 0.43 µM; inactive = the rest
[1] = system: 786-0 renal
[2] = system: NCI-H226 lung
[3] = system: IGROV1 ovarian
[4] = system: UACC-62 melanoma
[5] = system: SN12C renal
[6] = system: A549 NSCLC
[7] = system: SK-MEL-28 melanoma
[8] = system: SW-620 colon
[9] = system: UACC-257 melanoma
[10] = system: SK-MEL-5 melanoma
[11] = system: CAKI-1 renal
[12] = system: UO-31 renal
[13] = system: COLO 205 colon
[14] = system: PC-3 prostate
[15] = system: KM12 colon
[16] = system: BT-549 breast
[17] = system: K-562 leukemia
[18] = system: OVCAR-4 ovarian
[19] = system: NCI-H23 lung
[20] = system: NCI/ADR-RES ovarian
[21] = system: SK-OV-3 ovarian
[22] = system: HCT-116 colon
[23] = system: HCC-2998 colon
[24] = system: HT29 colon
[25] = system: MCF7 breast
[26] = system: T-47D breast
[27] = system: EKVX NSCLC
[28] = system: SF-539 CNS
[29] = system: MDA-MB-231 breast
[30] = system: HL-60(TB) leukemia
[31] = system: HS 578T breast
[32] = system: OVCAR-8 ovarian
[33] = system: DU-145 prostate
[34] = system: CCRF-CEM leukemia
[35] = system: OVCAR-3 ovarian
[36] = system: HCT-15 colon
[37] = system: MOLT-4 leukemia
[38] = system: MALME-3M melanoma
[39] = system: SF-295 CNS
[40] = system: RXF 393 renal
[41] = system: M14 melanoma
[42] = system: TK-10 renal
[43] = system: OVCAR-5 ovarian
[44] = system: HOP-62 NSCLC
[45] = system: SF-268 CNS
[46] = system: U251 CNS
[47] = system: RPMI-8226 leukemia
[48] = system: LOX IMVI melanoma
[49] = system: SNB-19 CNS
[50] = system: SNB-75 CNS
[51] = system: SR leukemia
[52] = system: NCI-H522 lung
[53] = system: A498 renal
[54] = system: SK-MEL-2 melanoma
[55] = system: HOP-92 NSCLC
[56] = system: ACHN renal
[57] = system: NCI-H460 lung

CC(=O)OC12c3ccccc3C(c3ccccc31)C1C(=O)N(c3ccccn3)C(=O)C12 (stereo not drawn)
57.9 µM: TGI [12]
> 100 µM: TGI [1] | TGI [2] | TGI [3] | TGI [4] | TGI [5] | TGI [6] | TGI [7] | TGI [8] | TGI [9] | TGI [10] | TGI [11] | TGI [13] | TGI [14] | TGI [15] | TGI [16] | TGI [17] | TGI [18] | TGI [19] | TGI [20] | TGI [21] | TGI [22] | TGI [23] | TGI [24] | TGI [25] | TGI [26] | TGI [27] | TGI [28] | TGI [29] | TGI [30] | TGI [31] | TGI [32] | TGI [33] | TGI [34] | TGI [35] | TGI [36] | TGI [37] | TGI [38] | TGI [39] | TGI [40] | TGI [41] | TGI [42] | TGI [43] | TGI [44] | TGI [45] | TGI [46] | TGI [47] | TGI [48] | TGI [49] | TGI [50]

COc1ccc(C(=O)c2cc3c(N)c(C(=O)Nc4ccccc4)sc3nc2C)cc1
5.92 µM: TGI [50]
active: GI50 [51] 376 nM | GI50 [53] 184 nM | GI50 [8] 415 nM | GI50 [25] 373 nM | GI50 [31] 331 nM | GI50 [36] 426 nM | GI50 [50] 242 nM
67.5 µM: TGI [31]
55.3 µM: TGI [23]
26.3 µM: TGI [30]
3.93 µM: TGI [57]
645 nM: TGI [53]
inactive: GI50 [1] 4.73 µM | GI50 [2] 11.1 µM | GI50 [3] 2510 nM | GI50 [4] 952 nM | GI50 [5] 1680 nM | GI50 [52] 1890 nM | GI50 [6] 638 nM | GI50 [9] 47.1 µM | GI50 [10] 459 nM | GI50 [11] 656 nM | GI50 [12] 2640 nM | GI50 [54] 4.22 µM | GI50 [13] 1420 nM | GI50 [14] 2770 nM | GI50 [15] 539 nM | GI50 [16] 38.6 µM | GI50 [17] 526 nM | GI50 [18] 16.1 µM | GI50 [19] 2540 nM | GI50 [20] 816 nM | GI50 [21] 763 nM | GI50 [22] 635 nM | GI50 [23] 1960 nM | GI50 [24] 562 nM | GI50 [26] 740 nM | GI50 [27] 5.42 µM | GI50 [28] 598 nM | GI50 [29] 2430 nM | GI50 [30] 500 nM | GI50 [55] 86.3 µM | GI50 [32] 3.71 µM | GI50 [33] 2210 nM | GI50 [34] 852 nM | GI50 [56] 1560 nM | GI50 [37] 796 nM | GI50 [39] 639 nM | GI50 [40] 485 nM | GI50 [41] 779 nM | GI50 [42] 8.04 µM | GI50 [43] 3.1 µM | GI50 [44] 1690 nM | GI50 [45] 3.65 µM | GI50 [46] 704 nM | GI50 [57] 439 nM | GI50 [47] 1780 nM | GI50 [48] 739 nM | GI50 [49] 2020 nM
10.6 µM: TGI [10]
4.57 µM: TGI [28]
> 100 µM: TGI [1] | TGI [2] | TGI [3] | TGI [4] | TGI [5] | TGI [51] | TGI [52] | TGI [6] | TGI [8] | TGI [9] | TGI [11] | TGI [12] | TGI [54] | TGI [13] | TGI [14] | TGI [15] | TGI [16] | TGI [17] | TGI [18] | TGI [19] | TGI [20] | TGI [21] | TGI [22] | TGI [24] | TGI [25] | TGI [26] | TGI [27] | TGI [29] | TGI [55] | TGI [32] | TGI [33] | TGI [34] | TGI [36] | TGI [56] | TGI [37] | TGI [39] | TGI [40] | TGI [41] | TGI [42] | TGI [43] | TGI [44] | TGI [45] | TGI [46] | TGI [47] | TGI [48] | TGI [49]
